Calls of active or inactive are those of the source. The rule behind the calls is not given here.
Legend:
Cytochrome P450 1A2 = target: T1, Cytochrome P450 1A2 (Homo sapiens, UniProt P05177); assay: Inhibition of human CYP1A2; format: ADME
T1 sequence (P05177 whole entry): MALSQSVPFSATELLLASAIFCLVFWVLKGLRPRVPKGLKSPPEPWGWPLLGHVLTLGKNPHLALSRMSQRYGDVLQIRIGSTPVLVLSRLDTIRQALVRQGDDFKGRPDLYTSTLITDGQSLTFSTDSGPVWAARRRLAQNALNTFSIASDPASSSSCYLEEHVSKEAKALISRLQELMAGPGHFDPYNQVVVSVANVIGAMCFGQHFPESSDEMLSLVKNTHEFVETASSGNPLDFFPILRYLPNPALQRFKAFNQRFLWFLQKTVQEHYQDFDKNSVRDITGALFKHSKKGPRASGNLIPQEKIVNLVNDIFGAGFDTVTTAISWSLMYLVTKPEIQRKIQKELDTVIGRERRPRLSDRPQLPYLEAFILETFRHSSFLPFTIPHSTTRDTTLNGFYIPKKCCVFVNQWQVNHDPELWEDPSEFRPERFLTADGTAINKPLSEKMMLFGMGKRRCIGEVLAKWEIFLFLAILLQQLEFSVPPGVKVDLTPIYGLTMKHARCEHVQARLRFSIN

[1] = Metabolic stability in rat microsomes assessed as compound remaining measured after 10 mins; format: ADME, Microsome; conditions: read-out: Stability
Cytochrome P450 3A4 [2] = target: T2, Cytochrome P450 3A4 (Homo sapiens, UniProt P08684); assay: Inhibition of human CYP3A4 using BFC as substrate; format: ADME
[3] = Plasma concentration in C57Bl/6 mouse NOR model at 0.1 mg/kg, sc measured after 0.5 hrs; format: ADME, organism-based
Cytochrome P450 2B6 = target: T3, Cytochrome P450 2B6 (Homo sapiens, UniProt P20813); assay: Inhibition of human CYP2B6; format: ADME
T3 sequence (P20813 whole entry): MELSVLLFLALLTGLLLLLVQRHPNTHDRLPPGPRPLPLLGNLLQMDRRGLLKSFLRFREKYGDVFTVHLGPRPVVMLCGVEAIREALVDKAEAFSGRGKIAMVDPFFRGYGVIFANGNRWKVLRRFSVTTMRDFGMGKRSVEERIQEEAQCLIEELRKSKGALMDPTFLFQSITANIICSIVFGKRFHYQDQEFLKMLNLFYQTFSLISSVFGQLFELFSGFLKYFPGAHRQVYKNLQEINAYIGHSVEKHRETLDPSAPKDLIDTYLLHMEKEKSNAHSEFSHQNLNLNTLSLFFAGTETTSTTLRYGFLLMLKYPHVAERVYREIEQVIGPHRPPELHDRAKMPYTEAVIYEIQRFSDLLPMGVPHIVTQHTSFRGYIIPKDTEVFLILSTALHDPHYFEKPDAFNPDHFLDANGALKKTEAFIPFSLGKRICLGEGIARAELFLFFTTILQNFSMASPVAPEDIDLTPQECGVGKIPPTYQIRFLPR

[4] = target: Nicotinic acetylcholine receptor alpha-1/beta-1/delta/epsilon (Rattus norvegicus, UniProt P09660+P25108+P25109+P25110); assay: Agonist activity at rat alpha1beta1deltaepsilon nAChR expressed in HEK293 cells for 2 mins by FLIPR assay; format: cell-based
[5] = Plasma concentration in C57Bl/6 mouse NOR model at 0.3 mg/kg, sc measured after 0.5 hrs; format: ADME, organism-based
[6] = Drug uptake in C57Bl/6 mouse NOR model brain at 0.3 mg/kg, sc measured after 0.5 hrs; format: ADME, organism-based; conditions: read-out: Drug uptake
[7] = Plasma concentration in C57Bl/6 mouse NOR model at 1 mg/kg, sc measured after 0.5 hrs; format: ADME, organism-based
Mus musculus [8] = assay: Reversal of NMDAR antagonist MK-801-induced memory deficits in C57Bl/6 mouse at 1 and 3 mg/kg, sc administered 30 mins prior to […] challenge measured after 30 mins by Y maze assay; format: functional, organism-based
[9] = Metabolic stability in human microsomes assessed as compound remaining measured after 10 mins; format: ADME, Microsome; conditions: read-out: Stability
Cytochrome P450 2C9 = Cytochrome P450 2C9 (Homo sapiens, UniProt P11712); assay: Inhibition of human CYP2C9; format: ADME
Mus musculus [10] = assay: Cognitive enhancing effect in C57Bl/6 mouse administered subcutaneously for 30 mins prior to training measured after 24 hrs by novel recognition assay; format: functional; conditions: C57Bl/6, sc, read-out: MED
[11] = target: Neuronal acetylcholine receptor; alpha3/beta4 (Rattus norvegicus, UniProt P04757+P12392); assay: Agonist activity at rat alpha3beta4 nAChR expressed in HEK293 cells for 2 mins by FLIPR assay; format: cell-based
[12] = Fraction unbound in mouse plasma; format: ADME, cell-free
Cytochrome P450 2C8 = target: T4, Cytochrome P450 2C8 (Homo sapiens, UniProt P10632); assay: Inhibition of human CYP2C8; format: ADME
T4 sequence (P10632 whole entry): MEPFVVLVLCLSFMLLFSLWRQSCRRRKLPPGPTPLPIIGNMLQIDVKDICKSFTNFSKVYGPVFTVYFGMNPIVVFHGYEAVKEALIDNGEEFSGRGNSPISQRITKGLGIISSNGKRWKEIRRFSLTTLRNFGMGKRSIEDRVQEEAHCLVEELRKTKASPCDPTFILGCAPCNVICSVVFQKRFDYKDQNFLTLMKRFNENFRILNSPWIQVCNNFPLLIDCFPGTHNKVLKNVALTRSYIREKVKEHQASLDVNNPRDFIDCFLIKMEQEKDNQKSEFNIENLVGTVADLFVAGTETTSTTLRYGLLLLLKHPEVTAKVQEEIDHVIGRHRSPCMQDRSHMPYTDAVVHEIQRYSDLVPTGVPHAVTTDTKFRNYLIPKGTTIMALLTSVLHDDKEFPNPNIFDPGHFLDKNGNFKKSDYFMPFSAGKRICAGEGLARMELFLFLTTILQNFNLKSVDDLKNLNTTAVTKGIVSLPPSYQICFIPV

[13] = Drug uptake in C57Bl/6 mouse NOR model brain at 1 mg/kg, sc measured after 0.5 hrs; format: ADME, organism-based; conditions: read-out: Drug uptake
[14] = target: Neuronal acetylcholine receptor; alpha4/beta2 (Rattus norvegicus, UniProt P09483+P12390); assay: Agonist activity at rat alpha4beta2 nAChR expressed in HEK293 cells for 2 mins by FLIPR assay; format: cell-based
[15] = Metabolic stability in mouse microsomes assessed as compound remaining measured after 10 mins; format: ADME, Microsome; conditions: read-out: Stability
[16] = Drug uptake in C57Bl/6 mouse NOR model brain at 0.1 mg/kg, sc measured after 0.5 hrs; format: ADME, organism-based; conditions: read-out: Drug uptake
Cytochrome P450 3A4 [17] = target: T2, Cytochrome P450 3A4; assay: Inhibition of human CYP3A4 using BZR as substrate; format: ADME
[18] = Plasma concentration in C57Bl/6 mouse NOR model at 0.3 mg/kg, sc measured after 2 hrs; format: ADME, organism-based
Mus musculus [19] = assay: Cognitive enhancing effect in C57Bl/6 mouse at 0.1 to 1 mg/kg, sc administered 30 mins prior to training measured after 24 hrs by novel recognition assay; format: functional, organism-based
Cytochrome P450 2D6 = Cytochrome P450 2D6 (Homo sapiens, UniProt P10635); assay: Inhibition of human CYP2D6; format: ADME
Mus musculus [20] = assay: Cognitive enhancing effect in C57Bl/6 mouse at 0.3 mg/kg, sc administered 30 mins to 6 hrs prior to training measured after 24 hrs by novel recognition assay; format: functional, organism-based
[21] = Fraction unbound in rat plasma; format: ADME, cell-free
Cytochrome P450 2C19 = Cytochrome P450 2C19 (Homo sapiens, UniProt P33261); assay: Inhibition of human CYP2C19; format: ADME
[22] = Plasma concentration in C57Bl/6 mouse NOR model at 0.03 mg/kg, sc measured after 0.5 hrs; format: ADME, organism-based
[23] = Drug uptake in C57Bl/6 mouse NOR model brain at 0.3 mg/kg, sc measured after 6 hrs; format: ADME, organism-based; conditions: read-out: Drug uptake
[24] = Plasma concentration in C57Bl/6 mouse NOR model at 0.3 mg/kg, sc measured after 6 hrs; format: ADME, organism-based
[25] = Drug uptake in C57Bl/6 mouse NOR model brain at 0.03 mg/kg, sc measured after 0.5 hrs; format: ADME, organism-based; conditions: read-out: Drug uptake
[26] = Drug uptake in C57Bl/6 mouse NOR model brain at 0.3 mg/kg, sc measured after 2 hrs; format: ADME, organism-based; conditions: read-out: Drug uptake
[27] = Fraction unbound in human plasma; format: ADME, cell-free

T2 sequence (P08684 whole entry): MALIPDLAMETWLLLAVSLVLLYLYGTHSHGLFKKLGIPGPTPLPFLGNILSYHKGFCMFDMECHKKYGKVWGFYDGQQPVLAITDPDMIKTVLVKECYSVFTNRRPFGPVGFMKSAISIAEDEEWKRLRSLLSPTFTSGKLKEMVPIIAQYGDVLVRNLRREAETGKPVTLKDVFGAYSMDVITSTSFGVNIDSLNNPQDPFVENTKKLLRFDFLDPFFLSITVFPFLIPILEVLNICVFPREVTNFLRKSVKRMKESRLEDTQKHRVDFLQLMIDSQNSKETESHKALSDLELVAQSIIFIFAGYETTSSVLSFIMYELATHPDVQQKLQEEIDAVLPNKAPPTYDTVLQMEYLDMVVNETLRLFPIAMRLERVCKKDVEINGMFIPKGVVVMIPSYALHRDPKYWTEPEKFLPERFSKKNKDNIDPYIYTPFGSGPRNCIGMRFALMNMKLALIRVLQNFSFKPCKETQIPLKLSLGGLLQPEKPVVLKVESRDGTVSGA
Sequence of Nicotinic acetylcholine receptor alpha-1/beta-1/delta/epsilon (P25109 whole entry): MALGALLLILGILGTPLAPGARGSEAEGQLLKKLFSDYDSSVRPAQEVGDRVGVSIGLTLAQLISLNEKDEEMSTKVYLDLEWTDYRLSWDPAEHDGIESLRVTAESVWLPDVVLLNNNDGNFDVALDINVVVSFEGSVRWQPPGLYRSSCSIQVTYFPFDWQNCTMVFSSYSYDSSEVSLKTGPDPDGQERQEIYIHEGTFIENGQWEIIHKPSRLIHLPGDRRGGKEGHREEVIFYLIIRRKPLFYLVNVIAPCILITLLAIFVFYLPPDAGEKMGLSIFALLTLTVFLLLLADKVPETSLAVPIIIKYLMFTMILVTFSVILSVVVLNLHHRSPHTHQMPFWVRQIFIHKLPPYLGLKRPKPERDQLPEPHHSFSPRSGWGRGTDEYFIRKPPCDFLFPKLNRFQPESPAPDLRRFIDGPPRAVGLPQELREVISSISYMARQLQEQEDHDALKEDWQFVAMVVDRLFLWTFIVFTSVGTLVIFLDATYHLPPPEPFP
Sequence of Nicotinic acetylcholine receptor alpha-1/beta-1/delta/epsilon (P25108 whole entry): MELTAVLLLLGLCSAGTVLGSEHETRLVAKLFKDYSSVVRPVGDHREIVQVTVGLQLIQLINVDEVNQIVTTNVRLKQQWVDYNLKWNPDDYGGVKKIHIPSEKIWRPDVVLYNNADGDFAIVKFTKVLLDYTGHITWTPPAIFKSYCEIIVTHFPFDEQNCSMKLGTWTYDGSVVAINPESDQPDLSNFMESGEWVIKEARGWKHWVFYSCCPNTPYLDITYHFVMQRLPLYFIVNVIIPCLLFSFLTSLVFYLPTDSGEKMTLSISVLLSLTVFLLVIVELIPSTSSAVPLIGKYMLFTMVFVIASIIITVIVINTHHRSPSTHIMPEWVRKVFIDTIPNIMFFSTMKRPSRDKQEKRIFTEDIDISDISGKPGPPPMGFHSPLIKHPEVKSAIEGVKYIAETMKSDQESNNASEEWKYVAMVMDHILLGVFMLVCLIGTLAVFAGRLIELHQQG
Sequence of Nicotinic acetylcholine receptor alpha-1/beta-1/delta/epsilon (P25110 whole entry): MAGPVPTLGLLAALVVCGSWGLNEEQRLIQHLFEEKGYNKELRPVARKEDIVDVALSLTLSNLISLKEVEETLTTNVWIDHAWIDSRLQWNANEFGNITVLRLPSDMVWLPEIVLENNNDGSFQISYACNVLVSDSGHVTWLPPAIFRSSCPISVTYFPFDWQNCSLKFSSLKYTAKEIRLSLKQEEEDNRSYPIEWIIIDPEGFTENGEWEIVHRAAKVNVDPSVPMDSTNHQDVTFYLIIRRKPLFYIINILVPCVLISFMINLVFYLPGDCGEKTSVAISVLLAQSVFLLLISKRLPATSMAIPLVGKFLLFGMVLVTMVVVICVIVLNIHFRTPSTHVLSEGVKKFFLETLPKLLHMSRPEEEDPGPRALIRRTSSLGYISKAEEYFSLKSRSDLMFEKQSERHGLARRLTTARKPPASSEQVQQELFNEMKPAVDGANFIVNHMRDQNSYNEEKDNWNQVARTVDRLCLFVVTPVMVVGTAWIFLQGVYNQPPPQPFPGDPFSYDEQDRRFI
Sequence of Nicotinic acetylcholine receptor alpha-1/beta-1/delta/epsilon (P09660 whole entry): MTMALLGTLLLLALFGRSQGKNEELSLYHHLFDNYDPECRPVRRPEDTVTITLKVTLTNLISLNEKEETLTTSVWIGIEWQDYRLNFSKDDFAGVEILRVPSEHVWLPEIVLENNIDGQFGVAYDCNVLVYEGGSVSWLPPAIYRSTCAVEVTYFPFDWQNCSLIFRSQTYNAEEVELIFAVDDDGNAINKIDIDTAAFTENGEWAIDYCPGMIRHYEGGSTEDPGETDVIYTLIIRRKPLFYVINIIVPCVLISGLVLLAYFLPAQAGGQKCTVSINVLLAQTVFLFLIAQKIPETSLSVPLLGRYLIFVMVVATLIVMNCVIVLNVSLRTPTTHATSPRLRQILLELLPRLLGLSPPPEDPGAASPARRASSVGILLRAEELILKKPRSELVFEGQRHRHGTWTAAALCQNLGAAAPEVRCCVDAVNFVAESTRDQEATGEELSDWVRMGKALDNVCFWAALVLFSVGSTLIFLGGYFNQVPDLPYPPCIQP
Sequence of Neuronal acetylcholine receptor; alpha3/beta4 (P04757 whole entry): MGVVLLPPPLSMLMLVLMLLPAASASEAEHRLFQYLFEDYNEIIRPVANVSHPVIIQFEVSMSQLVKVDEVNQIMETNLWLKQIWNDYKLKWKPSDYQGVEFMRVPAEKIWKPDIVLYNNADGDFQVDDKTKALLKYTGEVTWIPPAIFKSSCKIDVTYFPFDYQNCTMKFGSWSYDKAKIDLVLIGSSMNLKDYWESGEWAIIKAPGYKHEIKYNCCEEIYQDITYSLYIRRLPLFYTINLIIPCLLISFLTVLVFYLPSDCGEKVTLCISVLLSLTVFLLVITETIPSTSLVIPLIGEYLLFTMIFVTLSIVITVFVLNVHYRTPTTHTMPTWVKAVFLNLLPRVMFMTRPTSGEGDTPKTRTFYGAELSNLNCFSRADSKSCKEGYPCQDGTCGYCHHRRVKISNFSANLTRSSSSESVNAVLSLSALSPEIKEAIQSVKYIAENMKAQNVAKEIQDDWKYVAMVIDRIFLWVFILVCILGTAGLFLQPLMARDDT
Sequence of Neuronal acetylcholine receptor; alpha3/beta4 (P12392 whole entry): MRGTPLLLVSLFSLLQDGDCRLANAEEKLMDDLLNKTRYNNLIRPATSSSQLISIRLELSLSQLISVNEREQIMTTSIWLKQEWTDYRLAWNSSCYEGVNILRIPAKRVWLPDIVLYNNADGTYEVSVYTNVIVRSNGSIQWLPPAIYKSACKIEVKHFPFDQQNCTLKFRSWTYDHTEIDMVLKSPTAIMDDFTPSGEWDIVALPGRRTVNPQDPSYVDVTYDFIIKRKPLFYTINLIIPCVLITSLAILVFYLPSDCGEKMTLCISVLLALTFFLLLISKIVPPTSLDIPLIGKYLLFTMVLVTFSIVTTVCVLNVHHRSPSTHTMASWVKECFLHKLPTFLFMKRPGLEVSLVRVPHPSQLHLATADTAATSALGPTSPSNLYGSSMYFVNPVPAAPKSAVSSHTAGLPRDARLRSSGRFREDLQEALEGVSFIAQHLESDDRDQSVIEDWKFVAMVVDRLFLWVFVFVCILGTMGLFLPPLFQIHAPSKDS
Sequence of Neuronal acetylcholine receptor; alpha4/beta2 (P09483 whole entry): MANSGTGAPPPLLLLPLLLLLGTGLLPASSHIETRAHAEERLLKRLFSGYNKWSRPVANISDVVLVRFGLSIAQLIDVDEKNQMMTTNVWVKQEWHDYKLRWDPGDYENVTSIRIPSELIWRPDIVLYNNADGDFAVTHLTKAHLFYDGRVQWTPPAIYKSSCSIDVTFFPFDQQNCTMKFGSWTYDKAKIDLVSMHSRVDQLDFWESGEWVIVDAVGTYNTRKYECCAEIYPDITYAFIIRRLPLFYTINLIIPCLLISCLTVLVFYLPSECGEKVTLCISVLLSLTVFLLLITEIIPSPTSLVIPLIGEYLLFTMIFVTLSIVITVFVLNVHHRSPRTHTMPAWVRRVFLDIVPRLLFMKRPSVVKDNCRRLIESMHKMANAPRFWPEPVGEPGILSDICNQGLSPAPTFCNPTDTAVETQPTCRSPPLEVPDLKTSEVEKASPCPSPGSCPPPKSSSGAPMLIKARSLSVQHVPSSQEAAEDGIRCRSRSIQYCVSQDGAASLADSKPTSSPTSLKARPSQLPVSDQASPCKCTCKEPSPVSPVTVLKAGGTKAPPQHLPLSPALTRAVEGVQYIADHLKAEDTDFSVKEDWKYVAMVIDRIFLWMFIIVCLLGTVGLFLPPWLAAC
Sequence of Neuronal acetylcholine receptor; alpha4/beta2 (P12390 whole entry): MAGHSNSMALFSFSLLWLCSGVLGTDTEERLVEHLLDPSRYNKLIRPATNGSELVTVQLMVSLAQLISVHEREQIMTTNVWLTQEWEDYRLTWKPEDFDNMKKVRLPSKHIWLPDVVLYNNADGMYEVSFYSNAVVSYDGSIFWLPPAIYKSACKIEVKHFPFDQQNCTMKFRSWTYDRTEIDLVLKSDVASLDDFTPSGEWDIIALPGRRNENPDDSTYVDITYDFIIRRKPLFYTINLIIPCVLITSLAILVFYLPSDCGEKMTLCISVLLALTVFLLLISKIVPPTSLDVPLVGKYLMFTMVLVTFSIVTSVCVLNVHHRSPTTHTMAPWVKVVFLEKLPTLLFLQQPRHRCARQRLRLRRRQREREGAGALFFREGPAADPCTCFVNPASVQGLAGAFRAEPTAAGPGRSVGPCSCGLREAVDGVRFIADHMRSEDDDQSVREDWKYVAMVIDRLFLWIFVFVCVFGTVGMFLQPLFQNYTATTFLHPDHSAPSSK

## c1ccc2cc(NC3=NC[C@@]4(CN5CCC4CC5)O3)ncc2c1
Cytochrome P450 1A2
  IC50: > 40 µM
[1]
  remaining at 10 min: 89%
Cytochrome P450 3A4 [2]
  IC50: > 40 µM
[3]
  concentration at 0.5 h: 16 nM
Cytochrome P450 2B6
  IC50: > 40 µM
[4]
  EC50: > 100 µM
[5]
  concentration at 0.5 h: 43 to 69 nM
[6]
  concentration at 0.5 h: 155 to 182 nM
[7]
  concentration at 0.5 h: 184 nM
Mus musculus [8]
  Activity: Active
[9]
  remaining at 10 min: 96%
Cytochrome P450 2C9
  IC50: > 40 µM
Mus musculus [10]
  minimal effective dose: 0.1 mg/kg
[11]
  EC50: > 100 µM
[12]
  fraction unbound: 0.23
Cytochrome P450 2C8
  IC50: > 40 µM
[13]
  concentration at 0.5 h: 744 nM
[14]
  EC50: > 100 µM
[15]
  remaining at 10 min: 1%
[16]
  concentration at 0.5 h: 57 nM
Cytochrome P450 3A4 [17]
  IC50: > 40 µM
[18]
  concentration at 2 h: 26 nM
Mus musculus [19]
  Activity: Active
Cytochrome P450 2D6
  IC50: > 40 µM
Mus musculus [20]
  Activity: Active
[21]
  fraction unbound: 0.269
Cytochrome P450 2C19
  IC50: > 40 µM
[22]
  concentration at 0.5 h: 4 nM
[23]
  concentration at 6 h: 18 nM
[24]
  concentration at 6 h: 9 nM
[25]
  concentration at 0.5 h: 19 nM
[26]
  concentration at 2 h: 96 nM
[27]
  fraction unbound: 0.247

Source: ChEMBL document CHEMBL3877302, “Design and Synthesis of a New Series of 4-Heteroarylamino-1'-azaspiro[oxazole-5,3'-bicyclo[2.2.2]octanes as α7 Nicotinic Receptor Agonists. 1. Development of Pharmacophore and Early Structure-Activity Relationship” (J Med Chem, 2016)
